In patent publication US8129398B2 (priority 2008, dated 2012):

target: T1, HIV-integrase (Human immunodeficiency virus type 1 group M subtype B, UniProt P12497); experiment: HIV-Integrase Inhibition Activity (SPA bead integration assay with P33 labeled target DNA); format: biochemical; settings: recombinant integrase, class symbols; read-out: in vitro activity
T1 construct: Recombinant integrase (0.26 ng) was incubated with the beads
Outline: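 Strand integration read as bead-proximity CPM after P33 target DNA (0.1 fmol) and inhibitor were added to washed integrase–substrate DNA complexes on SPA beads. Enzyme bound 90 min at 37° C; EDTA (10 mM final) terminated reaction; IC50 graded A/B/C.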

Row | SMILES | IC50 [µM]
1 | Cn1nnnc1C(=O)NC12CCC(CC1)Cn1c2nc(C(=O)NCc2ccc(F)cc2)c(O)c1=O [Example 249, 7,10-Ethanopyrimido[1,2-a]azepine-2-carboxamide, N-[(4-fluorophenyl)methyl]-4,6,7,8,9,10-hexahydro-3-hydroxy-10-[[(1-methyl-1H-tetrazol-5-yl)carbonyl]amino]-4-oxo-] | < 0.01
2 | Cn1nnc(C(=O)NC23CCC(CC2)Cn2c3nc(C(=O)NCc3ccc(F)cc3)c(O)c2=O)n1 [Example 250, 7,10-Ethanopyrimido[1,2-a]azepine-2-carboxamide, N-[(4-fluorophenyl)methyl]-4,6,7,8,9,10-hexahydro-3-hydroxy-10-[[(2-methyl-2H-tetrazol-5-yl)carbonyl]amino]-4-oxo-] | < 0.01
3 | O=C(NCc1ccc(F)cc1)c1nc2n(c(=O)c1O)CC1CCC2(NC(=O)[C@H]2CCCN2)CC1 [Example 252, 7,10-Ethanopyrimido[1,2-a]azepine-2-carboxamide, N-[(4-fluorophenyl)methyl]-4,6,7,8,9,10-hexahydro-3-hydroxy-4-oxo-10-[[(2R)-2-pyrrolidinylcarbonyl]amino]-] | 0.01 to 0.1
4 | CN1CCC[C@@H]1C(=O)NC12CCC(CC1)Cn1c2nc(C(=O)NCc2ccc(F)cc2)c(O)c1=O [Example 257, 7,10-Ethanopyrimido[1,2-a]azepine-2-carboxamide, N-[(4-fluorophenyl)methyl]-4,6,7,8,9,10-hexahydro-3-hydroxy-10-[[[(2R)-1-methyl-2-pyrrolidinyl]carbonyl]amino]-4-oxo-] | 0.01 to 0.1
5 | CN1CCC[C@H]1C(=O)NC12CCC(CC1)Cn1c2nc(C(=O)NCc2ccc(F)cc2)c(O)c1=O [Example 258, 7,10-Ethanopyrimido[1,2-a]azepine-2-carboxamide, N-[(4-fluorophenyl)methyl]-4,6,7,8,9,10-hexahydro-3-hydroxy-10-[[[(2S)-1-methyl-2-pyrrolidinyl]carbonyl]amino]-4-oxo-] | 0.01 to 0.1
6 | COCCOC(=O)NC12CCC(CC1)Cn1c2nc(C(=O)NCc2ccc(F)cc2)c(O)c1=O [Example 259, Carbamic acid, [2-[[[(4-fluorophenyl)methyl]amino-0]carbonyl]-6,7,8,9-tetrahydro-3-hydroxy-4-oxo-7,10-ethanopyrimido[1,2-a]azepin-10(4H)-yl]-, 2-methoxyethyl ester] | < 0.01
7 | O=C(NC12CCC(CC1)Cn1c2nc(C(=O)NCc2ccc(F)cc2)c(O)c1=O)OCCO [Example 260, Carbamic acid, [2-[[[(4-fluorophenyl)methyl]amino]carbonyl]-6,7,8,9-tetrahydro-3-hydroxy-4-oxo-7,10-ethanopyrimido[1,2-a]azepin-10(4H)-yl]-, 2-hydroxyethyl ester] | < 0.01
8 | CC(C)(O)C(=O)NC12CCC(CC1)Cn1c2nc(C(=O)NCc2ccc(F)cc2)c(O)c1=O [Example 261, 7,10-Ethanopyrimido[1,2-a]azepine-2-carboxamide, N-[(4-fluorophenyl)methyl]-4,6,7,8,9,10-hexahydro-3-hydroxy-10-[(2-hydroxy-2-methyl-1-oxopropyl)amino]-4-oxo-] | < 0.01
9 | CC(=O)N1CCC[C@H]1C(=O)NC12CCC(CC1)Cn1c2nc(C(=O)NCc2ccc(F)c(C)c2)c(O)c1=O [Example 262, 7,10-Ethanopyrimido[1,2-a]azepine-2-carboxamide, 10-[[[(2S)-1-acetyl-2-pyrrolidinyl]carbonyl]amino]-N-[(4-fluoro-3-methylphenyl)methyl]-4,6,7,8,9,10-hexahydro-3-hydroxy-4-oxo-] | < 0.01
10 | Cc1cc(CNC(=O)c2nc3n(c(=O)c2O)CC2CCC3(NC(=O)[C@@H]3CCCN3S(C)(=O)=O)CC2)ccc1F [Example 263, 7,10-Ethanopyrimido[1,2-a]azepine-2-carboxamide, N-[(4-fluoro-3-methylphenyl)methyl]-4,6,7,8,9,10-hexahydro-3-hydroxy-10-[[[(2S)-1-(methylsulfonyl)-2-pyrrolidinyl]carbonyl]amino]-4-oxo-] | < 0.01
11 | O=C1C[C@@H](C(=O)NC23CCC(CC2)Cn2c3nc(C(=O)NCc3ccc(F)cc3)c(O)c2=O)N1 [Example 264, 7,10-Ethanopyrimido[1,2-a]azepine-2-carboxamide, N-[(4-fluorophenyl)methyl]-4,6,7,8,9,10-hexahydro-3-hydroxy-4-oxo-10-[[[(2S)-4-oxo-2-azetidinyl]carbonyl]amino]-] | < 0.01
12 | CC(=O)N1CCCC[C@H]1C(=O)NC12CCC(CC1)Cn1c2nc(C(=O)NCc2ccc(F)cc2)c(O)c1=O [Example 265, 7,10-Ethanopyrimido[1,2-a]azepine-2-carboxamide, 10-[[[(2S)-1-acetyl-2-piperidinyl]carbonyl]amino]-N-[(4-fluorophenyl)methyl]-4,6,7,8,9,10-hexahydro-3-hydroxy-4-oxo-] | < 0.01
13 | CS(=O)(=O)N1CCCC[C@H]1C(=O)NC12CCC(CC1)Cn1c2nc(C(=O)NCc2ccc(F)cc2)c(O)c1=O [Example 266, 7,10-Ethanopyrimido[1,2-a]azepine-2-carboxamide, N-[(4-fluorophenyl)methyl]-4,6,7,8,9,10-hexahydro-3-hydroxy-10-[[[(2S)-1-(methylsulfonyl)-2-piperidinyl]carbonyl]amino]-4-oxo-] | < 0.01
14 | CC(=O)N1CC[C@H]1C(=O)NC12CCC(CC1)Cn1c2nc(C(=O)NCc2ccc(F)cc2)c(O)c1=O [Example 267, 7,10-Ethanopyrimido[1,2-a]azepine-2-carboxamide, 10-[[[(2S)-1-acetyl-2-azetidinyl]carbonyl]amino]-N-[(4-fluorophenyl)methyl]-4,6,7,8,9,10-hexahydro-3-hydroxy-4-oxo-] | < 0.01
15 | CS(=O)(=O)N1CC[C@H]1C(=O)NC12CCC(CC1)Cn1c2nc(C(=O)NCc2ccc(F)cc2)c(O)c1=O [Example 268, 7,10-Ethanopyrimido[1,2-a]azepine-2-carboxamide, N-[(4-fluorophenyl)methyl]-4,6,7,8,9,10-hexahydro-3-hydroxy-10-[[[(2S)-1-(methylsulfonyl)-2-azetidinyl]carbonyl]amino]-4-oxo-] | < 0.01
16 | CN(C)C(=O)C(=O)N1CCC[C@H]1C(=O)NC12CCC(CC1)Cn1c2nc(C(=O)NCc2ccc(F)cc2)c(O)c1=O [Example 269, 7,10-Ethanopyrimido[1,2-a]azepine-2-carboxamide, 10-[[[(2S)-1-[2-(dimethylamino)-1,2-dioxoethyl]-2-pyrrolidinyl]carbonyl]amino]-N-[(4-fluorophenyl)methyl]-4,6,7,8,9,10-hexahydro-3-hydroxy-4-oxo-] | < 0.01
17 | CC(=O)N1[C@@H]2C[C@@H]2C[C@H]1C(=O)NC12CCC(CC1)Cn1c2nc(C(=O)NCc2ccc(F)cc2)c(O)c1=O [Example 270, 7,10-Ethanopyrimido[1,2-a]azepine-2-carboxamide, 10-[[[(1R,3S,5R)-2-acetyl-2-azabicyclo[3.1.0]hex-3-yl]carbonyl]amino]-N-[(4-fluorophenyl)methyl]-4,6,7,8,9,10-hexahydro-3-hydroxy-4-oxo-] | < 0.01
18 | CO[C@H]1C[C@@H](C(=O)NC23CCC(CC2)Cn2c3nc(C(=O)NCc3ccc(F)cc3)c(O)c2=O)N(C(C)=O)C1 [Example 271, 7,10-Ethanopyrimido[1,2-a]azepine-2-carboxamide, 10-[[[(2S,4S)-1-acetyl-4-methoxy-2-pyrrolidinyl]carbonyl]amino]-N-[(4-fluorophenyl)methyl]-4,6,7,8,9,10-hexahydro-3-hydroxy-4-oxo-] | < 0.01
